From PubChem BioAssay AID248 (DTP/NCI, 2004)
Inconclusive results and toxic doses are left out. No stated cut-off is given here; in the data, active means T/C of 150% or more; inactive means T/C below 125%.

Tested on: L1210 leukemia ip in BDF1 mice, survival T/C
Test: NCI In Vivo Anticancer Drug Screen. Data for tumor model L1210 Leukemia (intraperitoneal) in B6D2F1 (BDF1) mice
Settings: endpoint: mean survival time, higher = longer survival
Summary of the method: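 Ratio derived from survival: compound-dosed mice over vehicle-dosed mice, all bearing a transplantable tumor.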

[1] = dose: 100.0 mg/kg/injection, schedule: Q01DX009 (ip), vehicle: saline
[2] = dose: 100.0 mg/kg/injection, schedule: Q04DX003 (ip), vehicle: saline
[3] = dose: 200.0 mg/kg/injection, schedule: Q01DX009 (ip), vehicle: saline
[4] = dose: 200.0 mg/kg/injection, schedule: Q04DX003 (ip), vehicle: saline
[5] = dose: 400.0 mg/kg/injection, schedule: Q01DX009 (ip), vehicle: saline
[6] = dose: 100.0 mg/kg/injection, schedule: Q04DX003 (ip), vehicle: Klucel (hydroxypropylcellulose) (HPC)
[7] = dose: 200.0 mg/kg/injection, schedule: Q04DX003 (ip), vehicle: Klucel (hydroxypropylcellulose) (HPC)
[8] = dose: 400.0 mg/kg/injection, schedule: Q04DX003 (ip), vehicle: Klucel (hydroxypropylcellulose) (HPC)
[9] = dose: 100.0 mg/kg/injection, schedule: Q04DX003 (ip), vehicle: saline with Tween-80
[10] = dose: 200.0 mg/kg/injection, schedule: Q04DX003 (ip), vehicle: saline with Tween-80
[11] = dose: 400.0 mg/kg/injection, schedule: Q04DX003 (ip), vehicle: saline with Tween-80
[12] = dose: 100.0 mg/kg/injection, schedule: Q04DX002 (ip), vehicle: Klucel (hydroxypropylcellulose) (HPC)
[13] = dose: 200.0 mg/kg/injection, schedule: Q04DX002 (ip), vehicle: Klucel (hydroxypropylcellulose) (HPC)
[14] = dose: 400.0 mg/kg/injection, schedule: Q04DX002 (ip), vehicle: Klucel (hydroxypropylcellulose) (HPC)

Measured: T/C

C=CCOc1ccnc(OCC=C)n1
inactive: [1] 108 % of control | [2] 105 % of control | [3] 101 % of control | [4] 102 % of control | [5] 87 % of control | dose: 400.0 mg/kg/injection, schedule: Q04DX003 (ip), vehicle: saline 105 % of control

CC(=O)Nc1cc(Cl)ccc1Cl
inactive: [6] 102 % of control | [7] 88 % of control | [8] 102 % of control

COC(=O)CC(=O)OCC1C=CCC=C1
inactive: [9] 106 % of control | [10] 95 % of control | [11] 92 % of control

CCCCC(C(C)=O)C(C)C (configuration not stated)
inactive: dose: 100.0 mg/kg/injection, schedule: Q01DX009 (ip), vehicle: Klucel (hydroxypropylcellulose) (HPC) 94 % of control | [6] 100 % of control | dose: 200.0 mg/kg/injection, schedule: Q01DX009 (ip), vehicle: Klucel (hydroxypropylcellulose) (HPC) 91 % of control | [7] 96 % of control | dose: 400.0 mg/kg/injection, schedule: Q01DX009 (ip), vehicle: Klucel (hydroxypropylcellulose) (HPC) 95 % of control | [8] 92 % of control

COc1ccc2c(c1)CC=CO2
inactive: dose: 100.0 mg/kg/injection, schedule: Q01DX001 (ip), vehicle: carboxymethylcellulose (CMC) 107 % of control | dose: 200.0 mg/kg/injection, schedule: Q01DX001 (ip), vehicle: carboxymethylcellulose (CMC) 94 % of control | dose: 400.0 mg/kg/injection, schedule: Q01DX001 (ip), vehicle: carboxymethylcellulose (CMC) 100 % of control

CC(C)(C)OC(=O)CNC(=O)CCl
inactive: [2] 96 % of control | [4] 95 % of control

CN(C)C(C)(C)CC(C)(C)C
inactive: dose: 25.0 mg/kg/injection, schedule: Q04DX003 (ip), vehicle: saline with Tween-80 103 % of control | dose: 50.0 mg/kg/injection, schedule: Q04DX003 (ip), vehicle: saline with Tween-80 106 % of control | [9] 103 % of control

O=c1[nH]nnc2nn(C3OC(CO)C(O)C3O)cc12 (configuration not stated)
inactive: dose: 100.0 mg/kg/injection, schedule: Q01DX005 (ip), vehicle: saline 103 % of control | dose: 200.0 mg/kg/injection, schedule: Q01DX005 (ip), vehicle: saline 109 % of control

O=C(CCCC(=O)NNC(=S)Nc1ccc2ccccc2c1)NNC(=S)Nc1ccc2ccccc2c1
inactive: dose: 50.0 mg/kg/injection, schedule: Q01DX001 (ip), vehicle: saline 98 % of control | dose: 100.0 mg/kg/injection, schedule: Q01DX001 (ip), vehicle: saline 93 % of control | dose: 200.0 mg/kg/injection, schedule: Q01DX001 (ip), vehicle: saline 93 % of control | dose: 400.0 mg/kg/injection, schedule: Q01DX001 (ip), vehicle: saline 90 % of control

OC1CC2CCC1C21OCCO1 (configuration not stated)
inactive: [1] 107 % of control | [3] 100 % of control | [5] 109 % of control

O=C1C=CC2C3C=CC(CC3)C12 (configuration not stated)
inactive: dose: 50.0 mg/kg/injection, schedule: Q04DX002 (ip), vehicle: Klucel (hydroxypropylcellulose) (HPC) 89 % of control | [12] 93 % of control

Cc1ccc(C(=O)OCc2ccccc2CN(C)C)cc1
inactive: [12] 94 % of control | [13] 94 % of control | [14] 102 % of control

c1ccc(-c2nnn(-c3ccccc3)n2)cc1
inactive: [9] 94 % of control | [10] 93 % of control | [11] 98 % of control

COC(=O)c1ccc(O)cc1
inactive: dose: 100.0 mg/kg/injection, schedule: Q04DX002 (ip), vehicle: saline 96 % of control | dose: 200.0 mg/kg/injection, schedule: Q04DX002 (ip), vehicle: saline 100 % of control | dose: 400.0 mg/kg/injection, schedule: Q04DX002 (ip), vehicle: saline 100 % of control

CC(=O)Cc1cc(C)nc(/N=C(\N)N2CCOCC2)n1
inactive: [12] 100 % of control | [13] 92 % of control | [14] 88 % of control

CCn1c(C)cc(=O)n1-c1ccc([N+](=O)[O-])cc1
inactive: [6] 96 % of control | [7] 104 % of control | [8] 98 % of control
